Measurements as given in patent publication US20150099012A1, “METHODS FOR ACTIVATING RETROVIRUS IN LATENT INFECTED CELLS, AND COMPOUNDS FOR USE THEREIN” (Erasmus University Medical Center Rotterdam, priority 2012, published 2015).

Experiments:
latent HIV LTR = assay: Activation of latent HIV LTR in J-Lat/S-Lat latently infected cell lines (GFP reporter, FACS); type: cell-based, HIV-1; conditions: for de-repression / activation of latent HIV LTR: single agents, J-Lat/S-Lat or 1G5 cells, FIG. 5
Method: A) S-Lat 46, J-Lat P32, J-Lat A2, J-Lat 11.1, S-Lat 24, S-Lat 9 and […], and GFP expression was monitored by FACS analysis to determine activation of the latent LTR. B) J-Lat P32 and (C) S-Lat 30 Jurkats and SupT1 cell lines harbouring latently infected HIV were either untreated or treated with 2, 5 or 10 mM LiCl as indicated. Expression of HIV-LTR driven P24 and GFP, and endogenous Wnt target genes AXIN2, MMP9, TCF1, as well as control GAPDH and NFkB target genes TLR2 and ICAM1 was monitored by qRT-PCR 72 hours after treatment. Expression data are presented as fold induction normalized to Cyclophillin A control.
(§1) Expression data are presented as fold induction normalized to Cyclophillin A control.

[1] = tested on: HIV LTR nucleosomes (DHS1, nuc-1); assay: PCR-based MNase mapping of latent HIV LTR nucleosome structure; type: cell-based
Excerpt: The high resolution dynamic nucleosomal structure of latently integrated HIV LTR is mapped in presence or absence of Wnt stimulation.
It is an aspect of this invention that this synergistic effect on LTR nucleosome structure extends to other LTR de-repressors.

latently infected PBMCs = assay: Primary PBMC latency model, HIV expression after treatment; type: cell-based; conditions: PBMCs infected with LTR-Tat-IRES-GFP virus, sorted five days after infection
Excerpt: PBMCs were infected with VSV-G pseudotyped LTR-Tat-IRES-GFP virus particles and examined establishment of a latent phenotype, as in the cell line latency models (J-Lat/S-Lat). Briefly, PBMCs were Ficoll-purified from buffycoats of healthy donors, activated with phytohemagglutinin (PHA-L) and Interleukin-2 (IL-2), followed by virus infection. Five days after infection, GFP negative cells were sorted by FACS, placed in culture. […] Thus, even in the context of a fully activated T cell, integration of HIV at select sites will lead to the suppression of HIV transcription.

[2] = tested on: NFkB target genes TLR2 and ICAM1; assay: qRT-PCR of NFkB target genes in latent HIV-infected Jurkat/SupT1 cell lines; type: cell-based
Method: as §1
(§2) Latent HIV-infected S-Lat 30 (A) and J-LatP32 (B) were treated with Wnt3A or control conditioned media. Relative mRNA expression levels of endogenous Wnt target genes AXIN2, ZCCHC12, TCF1, MMP9, the HIV P24 Gag and the LTR-reporter GFP, control (GAPDH) and NFkB target genes were quantitated by qRT-PCR. Expression data are presented as fold induction normalized to Cyclophillin A control.
(§3) A) S-Lat 46, J-Lat P32, J-Lat A2, J-Lat 11.1, S-Lat 24, S-Lat 9 and S-Lat 30 latently infected Jurkat and SupT1 cell lines were treated with Lithium Chloride (10 mM) for 2 hours, and GFP expression was monitored by FACS analysis to determine activation of the latent LTR. B) J-Lat P32 and (C) S-Lat 30 Jurkats and SupT1 cell lines harbouring latently infected HIV were either untreated or treated with 2, 5 or 10 mM LiCl as indicated. Expression of HIV-LTR driven P24 and GFP, and endogenous Wnt target genes AXIN2, MMP9, TCF1, as well as control GAPDH and NFkB target genes TLR2 and ICAM1 was monitored by qRT-PCR 72 hours after treatment. Expression data are presented as fold induction normalized to Cyclophillin A control.
as §2, with “In addition, latent” for “Latent”

[3] = tested on: latent HIV (P24 Gag, LTR-reporter GFP); assay: qRT-PCR of HIV P24 Gag and LTR-reporter GFP mRNA in latent HIV-infected cell lines; type: cell-based
Excerpt: (§4) A) Exogenous expression of S33Y β-catenin in S-Lat30 latent HIV infected cell line results in activation of TCF/LEF-driven TOPFLASH luciferase activity. […] S33Y β-catenin expression also results in a concomitant activation of latent HIV in S-Lat30 HIV infected cell line as quantitated by increased mRNA expression of HIV P24 Gag and the LTR-reporter GFP. Expression data are presented as fold induction normalized to Cyclophillin A control.
as §2
as §2, with “In addition, latent” for “Latent”, “control. […]” for “control.”

[4] = tested on: Wnt target genes AXIN2, TCF7(TCF1), MMP9, ZCCHC12, MMP2; assay: qRT-PCR of endogenous Wnt target genes in latent HIV-infected Jurkat/SupT1 cell lines; type: cell-based
Method: as §1, §2
as §3, with “B) J-Lat P32 and (C) S-Lat 30 Jurkats and SupT1 cell lines harbouring latently infected HIV were either untreated or treated with 2, 5 or 10 mM LiCl as indicated.” left out, “Expression data are presented as fold induction normalized to Cyclophillin A control.” left out
as §2, with “In addition, latent” for “Latent”, “Expression data are presented as fold induction normalized to Cyclophillin A control.” left out

TCF/LEF-driven TOPFLASH = TCF/LEF-driven TOPFLASH luciferase reporter in S-Lat30; type: cell-based; conditions: exogenous expression (nucleofection) in S-Lat30; FIG. 6A
Excerpt: as §4
For example, activation of the Wnt signaling pathway may be measured/quantitated by an increase In TCF-driven transcription in the cell after introduction of TOPFLASH (plasmid with tandem TCF/LEF consensus sites driving expression of the luciferase gene) into the cell via transfection/nucleofection. Increase in TOPFLASH (TCF-driven) and not FOPFLASH (TCF-mutant reporter) indicates activation of the Wnt signaling pathway.
S33Y β-catenin constitutively active mutant: Transfection (by nucleofection) of latent HIV infected cell lines with an expression vector for a constitutively active form of β-catenin, the molecular effector of the Wnt signaling pathway results in activation of latent HIV.

[5] = Wnt3A conditioned media, S-Lat 30 and J-LatP32, FIG. 7
[6] = exogenous expression in S-Lat30, FIG. 6B

Cc1c[nH]c(-c2cnc(NCCNc3ccc(C#N)cn3)nc2-c2ccc(Cl)cc2Cl)n1 [CHIR-99021, 6-(2-(4-(2,4-Dichlorophenyl)-5-(4-methyl-1H-imidazol-2-yl)-pyrimidin-2-ylamino)ethyl-amino)-nicotinonitrile]
activation of the latent LTR (GFP expression by FACS) (latent HIV LTR; 1 μM, 24 hours, J-Lat P44, S-Lat 24, J-Lat P21, J-Lat 11.1, S-Lat 9, S-Lat 30, FIG. 8): activation of the HIV LTR

CCCCCCCCCCCCCC(=O)O[C@@H]1[C@@H](C)[C@@]2(O)[C@@H](C=C(CO)C[C@]3(O)C(=O)C(C)=C[C@@H]23)[C@@H]2C(C)(C)[C@]12OC(C)=O [PMA]
loosely positioned nucleosomes over DHS1 (MNase mapping) ([1]; PMA stimulation): disappear | HIV expression in GFP negative sorted infected PBMCs (latently infected PBMCs): activated HIV expression

CC(=O)O[C@@]12C[C@@H](C)[C@@]3(O)[C@@H](C=C(CO)C[C@]4(O)C(=O)C(C)=C[C@@H]34)[C@@H]1C2(C)C [Prostratin]
mRNA expression of NFkB target genes TLR2, ICAM1 (RT-PCR) ([2]; Lithium 1 mM-10 mM, Prostratin as positive control, FIG. 9): activation of the NFkB target genes TLR2 and ICAM

CCCC(CCC)C(=O)O [VPA, valproic acid]
de-repression / activation of latent HIV LTR (latent HIV LTR): marginal activation | remodelling of nuc-1 (MNase mapping) ([1]; co-treatment of VPA with Wnt stimulation): dramatic remodelling of the repressive nuc-1

TNFa
HIV expression in GFP negative sorted infected PBMCs (latently infected PBMCs): activated HIV expression

Wnt3A
de-repression / activation of latent HIV LTR (latent HIV LTR): de-repression of latent HIV LTR | activation of latent HIV (P24 Gag and LTR-reporter GFP mRNA, qRT-PCR) [3, 5]: activates latent HIV | activation of endogenous Wnt target genes (qRT-PCR) [4, 5]: activates latent HIV and endogenous Wnt target genes | activation of NFkB target genes (qRT-PCR) [2, 5]: not NFkB target genes

B1: R-spondin: LGR ligand, 27 kDa protein, used as R-spondin1-conditioned medium from HEK293T (protein, UniProt Q2MKA7 21-263, looked up)
R-spondin-1: SRGIKGKRQRRISAEGSQACAKGCELCSEVNGCLKCSPKLFILLERNDIRQVGVCLPSCPPGYFDARNPDMNKCIKCKIEHCEACFSHNFCTKCKEGLYLHKGRCYPACPEGSSAANGTMECSSPAQCEMSEWSPWGPCSKKQQLCGFRRGSEERTRRVLHAPVGDHAACSDTKETRRCTVRRVPCPEGQKRRKGGQGRRENANRNLARKESKEAGAGSRRRKGQQQQQQQGTVGPLTSAGPA
modifications: conditioned medium
notes: LGR ligand, 27 kDa protein, used as R-spondin1-conditioned medium from HEK293T
de-repression / activation of latent HIV LTR (latent HIV LTR): de-repression of latent HIV LTR

B2: S33Y β-catenin: constitutively active β-catenin mutant, expressed from a nucleofected expression vector (protein, UniProt P35222 2-781, looked up, variant S33Y)
Catenin beta-1: ATQADLMELDMAMEPDRKAAVSHWQQQSYLDYGIHSGATTTAPSLSGKGNPEEEDVDTSQVLYEWEQGFSQSFTQEQVADIDGQYAMTRAQRVRAAMFPETLDEGMQIPSTQFDAAHPTNVQRLAEPSQMLKHAVVNLINYQDDAELATRAIPELTKLLNDEDQVVVNKAAVMVHQLSKKEASRHAIMRSPQMVSAIVRTMQNTNDVETARCTAGTLHNLSHHREGLLAIFKSGGIPALVKMLGSPVDSVLFYAITTLHNLLLHQEGAKMAVRLAGGLQKMVALLNKTNVKFLAITTDCLQILAYGNQESKLIILASGGPQALVNIMRTYTYEKLLWTTSRVLKVLSVCSSNKPAIVEAGGMQALGLHLTDPSQRLVQNCLWTLRNLSDAATKQEGMEGLLGTLVQLLGSDDINVVTCAAGILSNLTCNNYKNKMMVCQVGGIEALVRTVLRAGDREDITEPAICALRHLTSRHQEAEMAQNAVRLHYGLPVVVKLLHPPSHWPLIKATVGLIRNLALCPANHAPLREQGAIPRLVQLLVRAHQDTQRRTSMGGTQQQFVEGVRMEEIVEGCTGALHILARDVHNRIVIRGLNTIPLFVQLLYSPIENIQRVAAGVLCELAQDKEAAEAIEAEGATAPLTELLHSRNEGVATYAAAVLFRMSEDKPQDYKKRLSVELTSSLFRTEPMAWNETADLGLDIGAQGEPLGYRQDDPSYRSFHSGGYGQDALGMDPMMEHEMGGHHPGADYPVDGLPDLGHAQDLMDGLPPGDSNQLAWFDTDL
mRNA expression of HIV P24 Gag and LTR-reporter GFP [3, 6]: increased mRNA expression of HIV P24 Gag as well as the LTR-reporter GFP | TCF-driven TOPFLASH luciferase activity (TCF/LEF-driven TOPFLASH): activation of TCF-driven TOPFLASH luciferase activity | mRNA expression of endogenous Wnt target genes AXIN2, MMP2, TCF1, ZCCHC12, MMP9 [4, 6]: increased mRNA expression of the endogenous Wnt target genes | mRNA expression of control gene GAPDH and NFkb target genes TLR2 and ICAM1 [2, 6]: not control gene GAPDH, or the NFkb target genes TLR2 and ICAM1
